Results as given in patent US20220232831A1, “NOVEL NON-CODING HETEROCYCLIC AMINO ACIDS (NCHAA) AND THEIR USE AS HERBICIDES” (Fortephest Ltd., priority 2019, published 2022).

How the values were obtained:
[1] = system: Seeds of Lettuce R. (Super-Jericho); test: Filter paper bioassay with lettuce seeds (germination and early plant development); type: in vivo; conditions: lettuce seeds on filter paper; 1, 0.1, 0.01, 0.001 mM; radicle and shoots assessed after 6 days
Experimental: Seeds of Lettuce R. (Super-Jericho, non-sterilized) were obtained from Ben Shahar Moshe Ltd., 99% purity.
Filter Paper Bioassays with Lettuce Seeds:
The protocol is following Bertin et al. 2009 and Movellan et al. 2014 with specified modifications as described below.
Seeds were placed on Whatman no. 1 filter paper (Whatman, Middlesex, U.K.) in Petri dishes (10 seeds per plate) supplemented with 2.0 ml of water (Control) or with a solution comprising 1 mM, 0.1 mM, 0.01 mM and 0.001 mM of test material. Petri dishes with seeds were placed in a tray at an angle of 45°. The trays were kept in dark for 48 hours and then transferred to the growth chamber (22° C., 0.045 mmol×m−2×s−1 photosynthetic photon flux density; 6/18 dark/light cycle) for additional 4 days. Each experiment was performed at least in two repeats. The development of radicle and shoots of experimental and control plants were visually assessed 6 days after the beginning of the test to determine Minimal Effective Concentration (MEC) of test material. In the context of the invention, MEC is defined as the lowest concentration level of a test material that caused deviation (absence of germination or malformation of radicle and shoots) from the plant's development in the Control group.

[2] = system: Romaine lettuce (Lactuca sativa L.) plants; test: Post-emergency herbicidal activity on Romaine lettuce plants; type: in vivo; conditions: Romaine lettuce at stage 2 to 3 leaves; compound in 0.1% Silwet, up to 0.5%; visual evaluation vs control plants
Experimental: The tests were performed on Romaine lettuce (Lactuca sativa L.) plants at the stage 2 to 3 leaves. The plants were grown on 300 well trays packed with soil, well dimensions 2×2×5 cm. Each compound was dissolved in 0.1% water solution of agronomically acceptable surfactant Silwet to final concentrations ranging from 0.0% (Control) to 0.5%. Two weeks after the treatment the herbicidal effects of the respective test material were visually evaluated by a comparison with the control plants. In addition, the aboveground part of the plant was neatly cut and weighed (wet weight). Each test was performed on 20 to 40 plants. The degree of growth inhibition and damage was evaluated according to the parameters in Table 2. Plant development at 7, 14, and 21 DAA (days after application) were evaluated on a scale of 0 to 100, in which score 0 represents dead plants and score 100 represents healthy plants according to plant vigor, height, and leaf color. Each test included 20 to 40 plants.

SMILES | Minimal Effective Concentration (MEC) as activity score, seeds germination & early plants development [1] | post-emergency herbicidal activity (Activity Index: plant's development vs Control) [2]
COCCOCCOC(=O)C(N)Cc1ccc(Br)nc1 (centres unmarked) [Code 674] | Strong (0.1 mM) | Moderate (From 50 to 75)
Nc1ncc(CC(N)C(=O)O)c(=O)[nH]1 (centres unmarked) [Code 664] | Moderate (1 mM) | Weak (More than 75)
COC(=O)C(N)Cc1ccnc(Br)c1 (centres unmarked) [Code 666] | Strong (0.1 mM) | Maximal (Less than 15)
NC(Cc1ncns1)C(=O)O (centres unmarked) [Code 532] | Strong (0.1 mM) | Moderate (From 50 to 75)
O=C(O)[C@@H](O)Cc1c[nH]cn1 [Code 710] | Weak (More than 1 mM) | Weak (More than 75)
CCCOC(=O)C(N)Cc1cc(Cl)oc1Cl (centres unmarked) [Code 575] | Strong (0.1 mM) | Moderate (From 50 to 75)
NC(Cc1csc([N+](=O)[O-])c1)C(=O)O (centres unmarked) [Code 553] | Weak (More than 1 mM) | Weak (More than 75)
NC(Cc1cocn1)C(=O)O (centres unmarked) [Code 542] | Weak (More than 1 mM) | Weak (More than 75)
NC(Cc1cc[nH]c1)C(=O)O (centres unmarked) [Code 704] | Weak (More than 1 mM) | Weak (More than 75)
NC(Cc1cc(Br)sc1Br)C(=O)O (centres unmarked) [Code 552] | Moderate (1 mM) | Maximal (Less than 15)
NC(CNS(=O)(=O)c1c(Cl)sc(Cl)c1C(F)(F)F)C(=O)O (centres unmarked) [Code 521] | Weak (More than 1 mM) | Weak (More than 75)
CN(C)c1ccncc1CC(N)C(=O)O (centres unmarked) [Code 643] | Weak (More than 1 mM) | Weak (More than 75)
NC(Cc1cc(=O)[nH]c(=O)[nH]1)C(=O)O (centres unmarked) [Code 652] | Weak (More than 1 mM) | Weak (More than 75)
N[C@@H](Cn1oc(=O)[nH]c1=O)C(=O)O [Code 557] | Weak (More than 1 mM) | Weak (More than 75)
CN(C)c1cc(CC(N)C(=O)O)ccn1 (centres unmarked) [Code 631] | Weak (More than 1 mM) | Weak (More than 75)
NC(CC1=NCSC1)C(=O)O (centres unmarked) [Code 519] | Maximal (0.01 mM and less) | Moderate (From 50 to 75)
CCOC(=O)C(N)Cc1ccnc(Br)c1Br (centres unmarked) [Code 662] | Strong (0.1 mM) | Moderate (From 50 to 75)
NC(Cc1ccncc1)C(=O)O (centres unmarked) [Code 602] | Strong (0.1 mM) | Moderate (From 50 to 75)
NC(Cc1cnc(O)c([N+](=O)[O-])c1)C(=O)O (centres unmarked) [Code 665] | Moderate (1 mM) | Weak (More than 75)
